The source of these data is patent US12209142B2, “SARS-CoV-2 epitope-targeted peptide immunostimulants” (Institute for Systems Biology, priority 2020, dated 2025).

For test [1], the system named is K. pneumoniae cells (strain BAA 2146). Nature of the test: Flow cytometry of AR-PCC-driven opsonization by anti-DNP antibodies. It counts as cell-based, Klebsiella pneumoniae. The conditions noted are these: for fluorescence of cells (opsonization by anti-DNP): cy(LLFFF)-DNP 1 or 5 μM, cy(HNGPT) control 50 μM, plus fluorescent anti-DNP. Background: Flow cytometry measures light scatter and fluorescence of single cells or particles in a stream.

Test [2] relates to K. pneumoniae cells, BAA 1705 and BAA 2146. Kind of test: Whole-cell ELISA of anti-DNP recruitment to bacterial cell surfaces. It is filed as cell-based, Klebsiella pneumoniae. The conditions noted are these: AR-PCC plus anti-DNP; cy(LLFFF)-DNP 5 or 10 μM, cy(HNGPT)-DNP 50 and 100 μM. An excerpt:
FIG. 12 is a plot of 450 nm absorbances obtained from a cell-based ELISA assay conducted on two strains of K. pneumoniae cells, BAA 1705 (black) and BAA 2146 (grey), that were either untreated or opsonized by EPIs (AR-PCCs) and/or antibodies. […] This establishes EPI-driven opsonization by cy(LLFFF)-DNP (SEQ ID NO:5). […] This indicates opsonization by cy(LLFFF)-DNP (SEQ ID NO:5) is specific and is driven by the ligand cy(LLFFF) (SEQ ID NO:5), rather than the Lys(DNP) moiety.
The protocol for detecting anti-DNP recruitment to bacterial cell surfaces is as follows. […] After washing, bacteria were incubated with HRP conjugated secondary antibody (Bio-Rad) at a dilution of 1:10,000 for 1 h at 37° C. Unbound antibody was washed off by using PBS-BSA and the cells were then developed by using TMB reagent. […] Anti-MrkA antibody was procured from Biorbyt (orb51318) and used at a concentration of 5 μg/mL, and K. pneumoniae antiserum was obtained from abcam (ab20947) and used at a concentration of 5 μg/mL.
In general terms: An ELISA detects its analyte on a solid surface through an enzyme-linked reagent.

The subject of test [3] is K. pneumoniae cells (strain BAA 1705). Kind of test: Gentamicin protection assay: phagocytosis and opsonophagocytic killing (OPK) by macrophages. It counts as cell-based, Klebsiella pneumoniae. Here is the method: FIGS. 7A and 7B show a gentamicin protection assay that evaluates EPI-driven phagocytosis and opsonophagocytic killing (OPK) of K. pneumoniae cells by murine bone-marrow-derived macrophages. FIG. 7A is a flow diagram depicting the assay used to evaluate EPI-driven opsonophagocytic killing (OPK) of K. pneumoniae cells. Briefly, K. pneumoniae cells (strain BAA 1705) opsonized by EPIs (AR-PCCs) and anti-DNP antibodies were incubated with macrophages for 1 or 24 h. Macrophages were lysed, and the lysate was plated to obtain bacterial colonies that were subsequently counted. FIG. 7B is a plot of colony counts for various samples subjected to the OPK assay. […] All EPIs (AR-PCCs) were used at a 5 μM concentration, measurements were conducted in triplicate, and error bars reflect standard deviations. cy(LLFFA) is SEQ ID NO:11.
It also tested whether DNP-conjugated EPIs could promote the opsonophagocytic killing (OPK) of K. pneumoniae by macrophages. This was tested by using an OPK assay. Briefly, K. pneumoniae cells were treated with EPI and then anti-DNP antibody before being exposed to macrophages for either 6 or 24 hours. During this incubation period, macrophages that recognize K. pneumoniae cells will phagocytose them, and phagocytosed bacteria will remain viable for up to 6 hours, but within 24 hours are rendered inviable by OPK. Thus, macrophages were isolated after 6 and 24 hours of incubation with K. pneumoniae, lysed them, and plated and grew the lysate, which yielded bacterial colonies that reflect the phagocytosis (at 6 hrs) or OPK (at 24 hrs) of bacteria.
Given that cy(LLFFF)-DNP (SEQ ID NO:5) recruits antibodies to K. pneumoniae surfaces, it was expected that K. pneumoniae opsonized in this manner would be more susceptible to phagocytosis by macrophages. AR-PCC-driven phagocytosis and OPK were quantified by a gentamicin protection assay, as depicted in FIG. 7A. For this assay, K. pneumoniae cells (strain BAA 1705) were treated with cy(LLFFF)-DNP (SEQ ID NO:5), opsonized by anti-DNP antibodies, and then incubated with murine bone-marrow-derived macrophages (BMDMs). BMDMs were subsequently exposed to a solution containing gentamicin, to which K. pneumoniae strain BAA 1705 is susceptible, to kill any extracellular bacteria. Phagocytosed bacteria remain viable inside BMDMs for at least 1 h, yet are rendered inviable after 24 h by OPK (FIG. 13). Macrophages harvested at 1 h and 24 h were lysed and plated to generate bacterial colonies, which were enumerated to quantify phagocytosis and OPK.
Opsonophagocytic killing (OPK) assays. Klebsiella pneumoniae BAA1705 was treated with DNP-PCCs followed by incubation with anti-DNP antibody, as described above in the “Cell-Based ELISAs” section. These opsonized bacteria were then used to infect BMDMs at a multiplicity of infection of 50 for 0.5 h at 37° C. Bacteria were then washed by using RPMI 1640 Media and BMDMs were left in cell culture medium containing gentamicin (100 μg/ml). After 1 h and 24 h BMDMs were washed to remove gentamicin and intracellular bacteria were harvested by lysing BMDMs in RPMI media containing 0.2% Triton X 100. Bacterial CFUs were enumerated by plating onto LB agar. Bacterial counts at 1 h indicated the degree of opsonization while those at 24 h served as a measure of microbicidal activity of macrophages. For these measurements, anti-MrkA antibody and K. pneumoniae antiserum were used at dilutions of 5 μg/mL each.

In test [4] the test system is live or heat-killed MRSA cells. Kind of test: ELISA of PCC-driven SAv-HRP recruitment to MRSA cells. It counts as cell-based, Staphylococcus aureus. The conditions noted are these: without or with 0.4 micrograms/mL tunicamycin. The method, then: FIG. 16A-16B are graphs showing PCC-driven recruitment of streptavidin-horseradish peroxidase (SAv-HRP) conjugate to live MRSA cells (FIG. 16A) or heat-killed MRSA cells (FIG. 16B) cultured under different antibiotic conditions via enzyme-linked Immunosorbent Assays (ELISAs). All tests were conducted by coating the antigen (MRSA cells) onto the wells of 96-well plates and then exposing the wells solutions containing biotinylated PCCs, then SAv-HRP, then HRP substrate followed by detection via absorbance at 450 nm. Absorbance values greater than the “no PCC” background indicate that several PCCs recruit SAv-HRP to either live cells (FIG. 16A) or heat-killed cells (FIG. 16B) cultured either without antibiotic (“−tunicamycin”, first three bars in each set) or with 0.4 micrograms/mL of tunicamycin (“+tunicamycin”, last three bars in each set), which reduces the expression of wall teichoic aids by MRSA. All measurements were conducted in triplicate and error bars reflect standard deviations. […]
The recruitment ability of selected PCCs was assessed by PCC-driven recruitment of streptavidin-horseradish peroxidase (SAv-HRP) conjugate to live MRSA cells (FIG. 16A) or heat-killed MRSA cells (FIG. 16B) cultured under different antibiotic conditions via enzyme-linked Immunosorbent Assays (ELISAs). […]

Test [5] has as its system MrkA-expressing K. pneumoniae cells. Nature of the test: Whole-cell ELISA of biotinylated PCC binding. The conditions noted are these: biotinylated PCC at 5 μM.

Several values for one entry are separate records, joined by “and”; a condition that tells them apart may be missing. Equal values may be shown once. Entries after “also recorded” stand apart in the source; their conditions may differ. Bridges are numbered along the chain shown (N, C = ends). Where no end group is shown, it is not given here. [ ]: non-standard residue; d: D form. Lys(N3) = [N-]=[N+]=NCCCC[C@H](N)C(=O)O; Pra = C#CC[C@H](N)C(=O)O

With “cy(HNGPT)-DNP: control AR-PCC, DNP-conjugated dummy ligand ([Lys(N3)]HNGPT[Pra]; triazole 1-7; also: DNP-conjugated) [reference compound]”, the “fluorescence intensity of cells (predominantly)” value in test [1] (AR-PCC at 50 μM plus Alexafluor 488 anti-DNP, strain BAA 2146) was < 1.0×10^1. Further, the “450 nm absorbance, anti-DNP recruitment to cells” value in test [2] is on record as “Much smaller signals”.
Regarding “cy(LLFFF)-DNP: cy(LLFFF) tagged with a DNP-modified lysine residue; lead AR-PCC ([Pra]LLFFF[Lys(N3)]; bridge 1-7; not fully specified (bridges); printed as cy(LLFFF)-DNP; also: tagged with a DNP-modified lysine residue, position not given here)”, the “fluorescence of cells (opsonization by anti-DNP)” value in test [1] is “much higher fluorescence”. Further, in test [2], the “450 nm absorbance, anti-DNP recruitment to cells” value is on record as “much larger signal”. Also, the “phagocytosis at 1 h, AR-PCC only (no anti-DNP)” value in test [3] (AR-PCC 5 μM, 1 h) is listed as “None of these treatments elicited phagocytosis above basal levels”. In addition, the “colony counts at 1 h, AR-PCC plus anti-DNP antibody” value in test [3] (AR-PCC 5 μM, murine BMDMs, 1 h) is 89,000 CFU and 85,000 CFU. In addition, in test [3] (plus anti-DNP, 1 h), the “level of phagocytosis lower than that induced by K. pneumoniae antiserum and anti-MrkA treatment” value is reported as “about 15%”.
Take “cy(kpdew): PCC to MRSA peptidoglycan, D-amino acids ([Lys(N3)][dK][dP][dD][dE][dW]X; bridge 1-7; not fully specified (residue 7, bridges); printed as cy(kpdew))”: in test [4], the “SAv-HRP recruitment to MRSA cells” value is “Standout recruiting peptides”.
The same measure, in the same setting: then “cy(akkrp) ([Lys(N3)][dA][dK][dK][dR][dP]X; bridge 1-7; not fully specified (residue 7, bridges); printed as cy(akkrp))”, with “Standout recruiting peptides”.
“cy(HNGPT): non-MrkA-binding dummy ligand ([Lys(N3)]HNGPT[Pra]; triazole 1-7) [reference compound]”: in test [1], the “fluorescence of cells (opsonization by anti-DNP)” value was “Slightly greater fluorescence”. Besides, the “whole-cell ELISA signal, K. pneumoniae BAA 1705 and BAA 2146” value in test [5] was “comparably lower signal; also recorded: no or minimal binding above baseline”. Further, in test [3] (macrophages harvested at 6 hrs), the “CFU at 6 hrs, DNP-conjugated EPI and anti-DNP antibody” value is “did not promote any phagocytosis”; the “cell counts at 6 hrs, DNP-conjugated EPI without antibody” value is on record as ~35,000.
